# Measurements taken from ChEMBL document CHEMBL1201862, “PubChem BioAssay data set” (2004).
# The source made the active and inactive calls.
# Columns and labels:
# Large T antigen = Large T antigen (Simian virus 40, UniProt P03070); assay type: functional, Betapolyomavirus macacae;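 further: Confirmatory-stage PubChem screen for compounds that inhibit SV40 T antigen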
# Caspase-7 = Caspase-7 (Homo sapiens, UniProt P55210); test: human caspase-7 inhibitors, dose response, selectivity assay for caspase-6 inhibitor project, biochemical, DEVD-R110 fluorescence, cherry-pick (AID 743295)
# Caspase-7, sequence (P55210 24-198 limits assumed): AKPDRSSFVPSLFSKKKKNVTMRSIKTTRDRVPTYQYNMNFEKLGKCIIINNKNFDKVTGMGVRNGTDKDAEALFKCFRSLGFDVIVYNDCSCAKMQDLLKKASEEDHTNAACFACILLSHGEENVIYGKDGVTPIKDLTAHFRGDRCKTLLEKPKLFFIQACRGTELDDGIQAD
# Caspase-7, sequence (P55210 207-303 limits assumed): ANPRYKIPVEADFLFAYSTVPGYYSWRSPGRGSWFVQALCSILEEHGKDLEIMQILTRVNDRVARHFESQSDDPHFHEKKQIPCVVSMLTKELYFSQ
# [1] = target: T1, Heat shock factor protein 1 (Mus musculus, UniProt P38532); test: HSF1 potentiators in luciferase reporter cells, confirmation, cell-based, NIH3T3, luminescence, dose retest (AID 435004); assay type: functional;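 further: stress induced by proteasome inhibitor MG132 added 30 min after compound; luciferase reporter driven by HSF1 response element in NIH3T3 cells; actives raise luminescence as potentiators of the MG132 stress response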
# T1 sequence (P38532 whole entry): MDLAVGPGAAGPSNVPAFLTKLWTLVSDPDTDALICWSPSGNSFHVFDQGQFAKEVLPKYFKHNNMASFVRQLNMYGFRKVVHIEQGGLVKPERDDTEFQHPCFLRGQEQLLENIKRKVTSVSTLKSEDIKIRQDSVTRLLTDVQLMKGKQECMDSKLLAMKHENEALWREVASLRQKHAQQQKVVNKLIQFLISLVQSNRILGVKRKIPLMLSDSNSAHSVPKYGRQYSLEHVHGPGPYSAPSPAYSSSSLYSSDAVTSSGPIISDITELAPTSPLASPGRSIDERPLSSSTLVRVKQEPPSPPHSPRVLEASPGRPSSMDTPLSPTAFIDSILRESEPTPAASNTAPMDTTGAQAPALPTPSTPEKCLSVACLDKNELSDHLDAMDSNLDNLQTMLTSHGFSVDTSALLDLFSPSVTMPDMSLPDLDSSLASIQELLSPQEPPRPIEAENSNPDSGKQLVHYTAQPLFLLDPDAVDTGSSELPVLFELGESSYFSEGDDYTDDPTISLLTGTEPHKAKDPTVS
# Caspase-9 = Caspase-9 (Homo sapiens, UniProt P55211); test: caspase-9 enzyme inhibition, dose response, selectivity assay for caspase-6 inhibitor project, biochemical, fluorescence, plate reader, cherry-picked samples (AID 743293)
# Caspase-9, sequence (P55211 1-315 limits assumed): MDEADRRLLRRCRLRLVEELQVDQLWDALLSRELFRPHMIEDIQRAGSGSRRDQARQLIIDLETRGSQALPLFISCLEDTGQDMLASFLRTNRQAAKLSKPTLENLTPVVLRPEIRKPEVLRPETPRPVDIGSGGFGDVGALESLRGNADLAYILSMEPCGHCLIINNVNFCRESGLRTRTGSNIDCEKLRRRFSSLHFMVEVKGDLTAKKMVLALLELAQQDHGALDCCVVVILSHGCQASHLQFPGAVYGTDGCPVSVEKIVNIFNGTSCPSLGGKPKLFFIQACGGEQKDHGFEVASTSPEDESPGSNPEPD
# Caspase-9, sequence (P55211 331-416 limits assumed): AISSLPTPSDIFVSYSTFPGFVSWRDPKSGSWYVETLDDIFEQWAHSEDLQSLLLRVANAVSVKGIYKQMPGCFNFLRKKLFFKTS
# Mu-type opioid receptor = Mu-type opioid receptor (Homo sapiens, UniProt P35372); test: Counterscreen for agonists of heterodimerization of the mu 1 (OPRM1) and delta 1 (OPRD1) opioid receptors: Luminescence-based cell-based high throughput dose response assay to identify agonists of OPRM1 homodimerization.; assay type: functional;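 further: U2OS cells expressing OPRM1 and beta-arrestin as split beta-galactosidase partners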
# Mu-type opioid receptor, sequence (P35372 whole entry): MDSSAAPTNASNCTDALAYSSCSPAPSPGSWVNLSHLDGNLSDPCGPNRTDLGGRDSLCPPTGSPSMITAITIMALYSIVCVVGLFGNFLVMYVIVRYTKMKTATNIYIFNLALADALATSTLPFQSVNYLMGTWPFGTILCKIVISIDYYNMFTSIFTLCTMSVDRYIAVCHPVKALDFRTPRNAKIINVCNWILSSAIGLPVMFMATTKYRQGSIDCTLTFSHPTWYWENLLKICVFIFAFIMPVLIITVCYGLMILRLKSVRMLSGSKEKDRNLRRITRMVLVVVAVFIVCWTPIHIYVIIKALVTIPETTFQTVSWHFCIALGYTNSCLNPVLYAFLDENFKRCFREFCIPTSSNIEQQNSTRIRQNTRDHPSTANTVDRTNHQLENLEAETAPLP
# Galanin receptor type 3 = target: T2, Galanin receptor type 3 (Homo sapiens, UniProt O60755); test: Fluorescence-based cell-based primary high throughput dose response assay to identify antagonists of the Galanin Receptor 3 (GalR3).; assay type: functional
# T2 sequence (O60755 whole entry): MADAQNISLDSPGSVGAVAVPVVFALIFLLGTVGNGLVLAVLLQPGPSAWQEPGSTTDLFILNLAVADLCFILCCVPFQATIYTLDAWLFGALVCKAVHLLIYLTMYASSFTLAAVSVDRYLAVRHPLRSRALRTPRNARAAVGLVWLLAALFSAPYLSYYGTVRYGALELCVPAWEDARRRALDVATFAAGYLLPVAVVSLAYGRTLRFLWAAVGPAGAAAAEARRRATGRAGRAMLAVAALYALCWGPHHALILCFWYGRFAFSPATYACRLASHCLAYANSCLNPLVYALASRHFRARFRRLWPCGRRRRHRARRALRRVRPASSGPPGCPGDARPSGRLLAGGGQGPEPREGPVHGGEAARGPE
# [2] = target: T3, Endoribonuclease toxin MazF (Escherichia coli K-12, UniProt P0AE70); test: MazF endoribonuclease activators, SAR follow-up, biochemical, fluorescence, single-stranded RNA substrate (AID 588603); assay type: functional
# T3 sequence (P0AE70 whole entry): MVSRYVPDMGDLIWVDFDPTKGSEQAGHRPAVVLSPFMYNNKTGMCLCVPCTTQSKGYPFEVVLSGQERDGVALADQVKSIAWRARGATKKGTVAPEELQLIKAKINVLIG
# Streptokinase A = target: T4, Streptokinase A (Streptococcus pyogenes serotype M1, UniProt P10520); test: S. pyogenes streptokinase expression inhibitors, potency, dose response, plasminogen activation absorbance, OD405 (AID 1914); assay type: functional, Streptococcus pyogenes M1 GAS;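 further: secreted streptokinase activity via plasminogen activation per viability signal from cell pellet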
# T4 sequence (P10520 whole entry): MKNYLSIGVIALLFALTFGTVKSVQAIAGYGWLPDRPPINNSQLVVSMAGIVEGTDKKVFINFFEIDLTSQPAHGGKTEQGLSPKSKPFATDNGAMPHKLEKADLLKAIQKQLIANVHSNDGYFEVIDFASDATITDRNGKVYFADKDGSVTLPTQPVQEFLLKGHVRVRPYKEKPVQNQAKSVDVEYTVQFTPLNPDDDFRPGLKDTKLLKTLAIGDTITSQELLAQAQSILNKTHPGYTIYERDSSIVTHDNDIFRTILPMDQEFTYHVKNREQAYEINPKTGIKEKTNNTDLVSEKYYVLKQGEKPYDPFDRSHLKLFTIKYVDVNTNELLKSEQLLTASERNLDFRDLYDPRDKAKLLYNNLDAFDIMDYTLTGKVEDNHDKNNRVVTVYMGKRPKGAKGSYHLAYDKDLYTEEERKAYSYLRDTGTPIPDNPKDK
# [3] = target: T5, Tyrosine-protein phosphatase non-receptor type 22 (Homo sapiens, UniProt Q9Y2R2); assay type: functional
# T5 sequence (Q9Y2R2 whole entry): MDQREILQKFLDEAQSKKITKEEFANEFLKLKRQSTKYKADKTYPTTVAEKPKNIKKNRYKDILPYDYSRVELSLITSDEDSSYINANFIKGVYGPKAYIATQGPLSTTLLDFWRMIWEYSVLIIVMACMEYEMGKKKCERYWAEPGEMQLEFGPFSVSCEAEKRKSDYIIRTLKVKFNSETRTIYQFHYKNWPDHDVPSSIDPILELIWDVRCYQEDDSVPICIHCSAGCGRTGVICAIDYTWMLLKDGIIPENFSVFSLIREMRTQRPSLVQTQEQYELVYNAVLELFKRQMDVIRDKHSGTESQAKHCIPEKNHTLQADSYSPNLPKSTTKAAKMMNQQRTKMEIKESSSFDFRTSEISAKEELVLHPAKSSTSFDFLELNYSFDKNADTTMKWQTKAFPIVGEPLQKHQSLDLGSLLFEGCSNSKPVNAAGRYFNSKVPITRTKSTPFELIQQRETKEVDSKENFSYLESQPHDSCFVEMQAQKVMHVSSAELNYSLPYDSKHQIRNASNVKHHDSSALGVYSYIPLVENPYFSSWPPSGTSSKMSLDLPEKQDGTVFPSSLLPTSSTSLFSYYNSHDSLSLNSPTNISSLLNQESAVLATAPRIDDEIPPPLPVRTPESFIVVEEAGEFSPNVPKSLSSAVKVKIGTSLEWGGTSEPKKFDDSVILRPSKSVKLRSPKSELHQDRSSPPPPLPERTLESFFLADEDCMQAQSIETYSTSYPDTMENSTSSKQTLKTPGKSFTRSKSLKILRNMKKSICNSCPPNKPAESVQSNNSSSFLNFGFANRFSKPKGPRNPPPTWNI
# [4] = target: T5, Tyrosine-protein phosphatase non-receptor type 22; assay type: functional; remark: listed apart in the source
# Large T antigen, sequence (P03070 whole entry): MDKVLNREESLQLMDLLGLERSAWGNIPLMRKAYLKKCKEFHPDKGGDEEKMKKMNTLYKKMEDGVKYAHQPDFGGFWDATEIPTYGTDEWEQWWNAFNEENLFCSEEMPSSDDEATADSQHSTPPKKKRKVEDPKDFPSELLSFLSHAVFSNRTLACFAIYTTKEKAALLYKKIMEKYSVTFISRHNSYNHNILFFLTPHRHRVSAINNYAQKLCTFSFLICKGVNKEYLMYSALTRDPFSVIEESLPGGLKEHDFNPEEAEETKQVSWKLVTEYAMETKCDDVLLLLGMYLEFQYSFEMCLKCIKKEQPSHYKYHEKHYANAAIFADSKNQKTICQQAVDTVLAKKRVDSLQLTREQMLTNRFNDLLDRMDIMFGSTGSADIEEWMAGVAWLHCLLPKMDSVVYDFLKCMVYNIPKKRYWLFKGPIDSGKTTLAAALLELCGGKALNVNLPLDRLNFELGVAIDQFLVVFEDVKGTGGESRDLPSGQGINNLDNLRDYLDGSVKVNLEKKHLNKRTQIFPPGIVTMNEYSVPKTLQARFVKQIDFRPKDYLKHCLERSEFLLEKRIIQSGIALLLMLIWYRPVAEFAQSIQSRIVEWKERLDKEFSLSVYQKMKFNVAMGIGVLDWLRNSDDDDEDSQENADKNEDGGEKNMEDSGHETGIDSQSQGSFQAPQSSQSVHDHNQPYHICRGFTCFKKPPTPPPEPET
compound,measurement,setting,value
O=C(CCN1C(=O)/C(=C\c2ccco2)SC1=S)Nc1ccc(C(=O)O)c(O)c1,IC50,Large T antigen,> 100 µM (active)
Oc1nc(Nc2ccccc2Cl)cc2ccccc12,AC50,Caspase-7,12.2 µM (active)
same,EC50,[1],136 µM (active)
same,AC50,Caspase-9,28.8 µM (active)
O=C1C=C(c2c(O)ccc3ccccc23)c2ccccc2C1=O,EC50,Mu-type opioid receptor,> 92.4 µM (inactive)
same,IC50,Galanin receptor type 3,> 3.32 µM (active)
same,EC50,[2],> 99 µM (inactive)
Cc1nc2c(=O)n(C)c(=O)nc-2n(C)n1,EC50,Streptokinase A,> 150 µM (not active)
same,IC50,[3],< 1.24 µM (active)
same,IC50,[4],< 1.24 µM (active)
